{"source": "a compilation of properties of binary mixtures (doi:10.1021/acs.jced.3c00374)", "experiment": "xn = mol fraction of the nth substance listed", "details": "100 kPa", "data": [{"smiles": "OCCNCCO", "note": "+ CCCC[n+]1ccn(C)c1.N#C[S-]", "values": [{"measurement": "speed of sound", "setting": "288.15 K, x2 = 0", "value": 1761.3, "unit": "m/s"}, {"measurement": "speed of sound", "setting": "308.15 K, x2 = 0", "value": 1700.6, "unit": "m/s"}, {"measurement": "speed of sound", "setting": "318.15 K, x2 = 0", "value": 1675.6, "unit": "m/s"}]}, {"smiles": "CCCC[n+]1ccn(C)c1.N#C[S-]", "note": "+ OCCNCCO", "values": [{"measurement": "speed of sound", "setting": "288.15 K, x1 = 0.1008", "value": 1764.4, "unit": "m/s"}, {"measurement": "speed of sound", "setting": "288.15 K, x1 = 0.2993", "value": 1770.6, "unit": "m/s"}, {"measurement": "speed of sound", "setting": "288.15 K, x1 = 0.4027", "value": 1773.9, "unit": "m/s"}, {"measurement": "speed of sound", "setting": "288.15 K, x1 = 0.5131", "value": 1777.3, "unit": "m/s"}, {"measurement": "speed of sound", "setting": "288.15 K, x1 = 0.7102", "value": 1783.5, "unit": "m/s"}, {"measurement": "speed of sound", "setting": "288.15 K, x1 = 0.8009", "value": 1786.3, "unit": "m/s"}, {"measurement": "speed of sound", "setting": "288.15 K, x1 = 0.9102", "value": 1789.8, "unit": "m/s"}, {"measurement": "speed of sound", "setting": "288.15 K, x1 = 1", "value": 1792.6, "unit": "m/s"}, {"measurement": "speed of sound", "setting": "298.15 K, x1 = 0.1008", "value": 1732.8, "unit": "m/s"}, {"measurement": "speed of sound", "setting": "298.15 K, x1 = 0.2103", "value": 1737, "unit": "m/s"}, {"measurement": "speed of sound", "setting": "298.15 K, x1 = 0.4027", "value": 1744.5, "unit": "m/s"}, {"measurement": "speed of sound", "setting": "298.15 K, x1 = 0.5131", "value": 1748.7, "unit": "m/s"}, {"measurement": "speed of sound", "setting": "298.15 K, x1 = 0.6087", "value": 1752.4, "unit": "m/s"}, {"measurement": "speed of sound", "setting": "298.15 K, x1 = 0.9102", "value": 1764, "unit": "m/s"}, {"measurement": "speed of sound", "setting": "298.15 K, x1 = 1", "value": 1767.5, "unit": "m/s"}, {"measurement": "speed of sound", "setting": "308.15 K, x1 = 0.1008", "value": 1704.9, "unit": "m/s"}, {"measurement": "speed of sound", "setting": "308.15 K, x1 = 0.2103", "value": 1709.6, "unit": "m/s"}, {"measurement": "speed of sound", "setting": "308.15 K, x1 = 0.4027", "value": 1717.8, "unit": "m/s"}, {"measurement": "speed of sound", "setting": "308.15 K, x1 = 0.5131", "value": 1722.5, "unit": "m/s"}, {"measurement": "speed of sound", "setting": "308.15 K, x1 = 0.7102", "value": 1731, "unit": "m/s"}, {"measurement": "speed of sound", "setting": "308.15 K, x1 = 0.9102", "value": 1739.6, "unit": "m/s"}, {"measurement": "speed of sound", "setting": "308.15 K, x1 = 1", "value": 1743.4, "unit": "m/s"}, {"measurement": "speed of sound", "setting": "318.15 K, x1 = 0.1008", "value": 1680.4, "unit": "m/s"}, {"measurement": "speed of sound", "setting": "318.15 K, x1 = 0.2103", "value": 1685.6, "unit": "m/s"}, {"measurement": "speed of sound", "setting": "318.15 K, x1 = 0.2993", "value": 1689.8, "unit": "m/s"}, {"measurement": "speed of sound", "setting": "318.15 K, x1 = 0.4027", "value": 1694.8, "unit": "m/s"}, {"measurement": "speed of sound", "setting": "318.15 K, x1 = 0.5131", "value": 1700, "unit": "m/s"}, {"measurement": "speed of sound", "setting": "318.15 K, x1 = 0.6087", "value": 1704.6, "unit": "m/s"}, {"measurement": "speed of sound", "setting": "318.15 K, x1 = 0.7102", "value": 1709.4, "unit": "m/s"}, {"measurement": "speed of sound", "setting": "318.15 K, x1 = 0.8009", "value": 1713.7, "unit": "m/s"}]}]}
